ChEMBL document CHEMBL5729293, “Inhibitors of KEAP1-Nrf2 protein-protein interaction” (2022)
pKd: −log10 of the molar value.

Assay: Fluorescence Based Assay: The details of the KEAP1 KELCH ThermoFluor® Assay Construct are as follows: Kelch domain of human KEAP 1 (321-624 aa) was used in the assay. The protein was expressed in E. coli with 6His tag that was cleaved prior to receipt for use.ThermoFluor® experiments were carried out using instruments owned by Janssen Research and Discovery, L.L.C. through its acquisition of 3-Dimensional Pharmaceuticals, Inc. 1,8-ANS (Invitrogen) was used as a fluorescent dye. Protein (KEAP Kelch) and compound solutions were dispensed into black 384-well polypropylene PCR microplates (Abgene) and overlayed with silicone oil (1 μL, Fluka, type DC 200) to prevent evaporation.Reference wells contained KEAP Kelch without compounds, and the assay conditions were as follows: 1.1 μM (0.037mg/mL) KEAP Kelch, 80 μM 1,8-ANS, 25 mM PIPES, pH 7.0, 100 mM NaCl, 0.002% Tween-20.

Structure (SMILES)	pKd
Cc1ccc([C@@H](c2ccn3c(C(F)(F)F)nnc3c2C)C(C)(C)C(=O)O)cc1CN1CC2(CCOCC2)Oc2nc(OCCN3CCOCC3)ccc2S1(=O)=O	> 9.00
Cc1ccc(C(c2ccn3c(C(F)(F)F)nnc3c2C)C(C)(C)C(=O)O)cc1CN1CC2(CCOCC2)Oc2nc(OCCCO)ccc2S1(=O)=O (stereo unspecified)	> 9.00
Cc1ccc([C@@H](c2cc(C)n3c(C(F)(F)F)nnc3c2C)C(C)C(=O)O)cc1CN1C[C@@H]2CCCCN2c2ncccc2S1(=O)=O (stereo partly specified)	> 9.00
Cc1ccc([C@H](CC(=O)O)c2ccn3c(C(F)(F)F)nnc3c2C)cc1CN1CC2(CC2)Oc2nc(NCCN3CCOCC3)ccc2S1(=O)=O	> 9.00
Cc1ccc([C@H](CC(=O)O)c2ccn3c(C(F)(F)F)nnc3c2C)nc1CN1C[C@@H]2CCCCN2c2ncc(C#N)cc2S1(=O)=O	> 9.00
Cc1ccc(C(CC(=O)O)c2ccn3c(C4CC4)nnc3c2C)cc1CN1C[C@H]2CCCN2c2ncccc2S1(=O)=O (stereo partly specified)	> 9.00
Cc1ccc([C@@H](CC(=O)O)c2ccn3c(C(F)F)nnc3c2C)cc1CN1C[C@H]2CCCCN2c2ncc(C#N)cc2S1(=O)=O	> 9.00
CCn1nnc2c(C)c(C(CC(=O)O)c3ccc(C)c(CN4C[C@@H]5CCCN5c5ncccc5S4(=O)=O)c3)ccc21 (stereo partly specified)	> 9.00
CCn1nnc2c(C)c([C@@H](CC(=O)O)c3ccc(C)c(CN4C[C@H]5CCCN5c5ccccc5S4(=O)=O)c3)ccc21	> 9.00
Cc1ccc([C@H](c2ccn3c(C(F)(F)F)nnc3c2C)C(C)(C)C(=O)O)cc1CN1CC2(CCOCC2)Oc2nc(NC3CC(O)C3)c(C)cc2S1(=O)=O (stereo partly specified)	> 9.00
Cc1ccc([C@@H](c2ccn3c(C(F)(F)F)nnc3c2C)C(C)(C)C(=O)O)cc1CN1CC2(CCOCC2)Oc2nc(N[C@@H](C)CCO)ccc2S1(=O)=O	> 9.00
Cc1ccc([C@@H](c2ccn3c(C(F)(F)F)nnc3c2C)C(C)(C)C(=O)O)cc1CN1CC2(CCOCC2)Oc2nc(N[C@H](C)CCO)ccc2S1(=O)=O	> 9.00
Cc1cnc([C@@H](c2ccn3c(C(F)(F)F)nnc3c2C)C(C)(C)C(=O)O)cc1CN1CC2(CCOCC2)Oc2ncccc2S1(=O)=O	> 9.00
Cc1ccc(C(CC(=O)O)c2ccc3c(nnn3CC3CC3)c2C)cc1CN1CC2(COC2)Oc2ccccc2S1(=O)=O (stereo unspecified)	> 9.00
Cc1ccc([C@@H](CC(=O)O)c2ccn3c(C(F)F)nnc3c2C)cc1CN1C[C@@H]2CCCCN2c2ncc(C#N)cc2S1(=O)=O	> 9.00
CC[C@@H]1CN(Cc2nc([C@@H](CC(=O)O)c3ccc4c(nnn4C4CC4)c3C)ccc2C)S(=O)(=O)c2cccnc2O1	> 9.00
Cc1ccc([C@@H](c2ccn3c(C4CC4)nnc3c2C)C(C)(C)C(=O)O)cc1CN1CC2(CCOCC2)Oc2ncccc2S1(=O)=O	> 9.00
Cc1c([C@@H](CC(=O)O)c2ccc(Cl)c(CN3CC4CCCCN4c4ncccc4S3(=O)=O)c2)ccn2c(C(F)(F)F)nnc12 (stereo partly specified)	> 9.00
Cc1ccc(C(CC(=O)O)c2ccn3c(C(F)F)nnc3c2C)cc1CN1CC2CCCCN2c2ncc(C#N)cc2S1(=O)=O (stereo unspecified)	> 9.00
CC[C@@H]1CN(Cc2nc([C@H](CC(=O)O)c3ccc4c(nnn4C4CC4)c3C)ccc2C)S(=O)(=O)c2cccnc2O1	> 9.00
Cc1ccc(C(CC(=O)O)c2ccc3c(nnn3CC3CC3)c2C)cc1CN1CC2(CC2)N(C)c2ncccc2S1(=O)=O (stereo unspecified)	> 9.00
Cc1ccc([C@@H](c2ccn3c(C(F)(F)F)nnc3c2C)C(C)(C)C(=O)O)cc1CN1CC2(CCOCC2)Oc2nc(OCCCO)ccc2S1(=O)=O	> 9.00

Structure (SMILES)	pKd
Cc1cnc(C(c2ccn3c(C(F)(F)F)nnc3c2C)C(C)(C)C(=O)O)cc1CN1CC2(CCOCC2)Oc2ncccc2S1(=O)=O (stereo unspecified)	> 9.00
Cc1ccc(C(c2ccn3c(C(F)(F)F)nnc3c2C)C(C)(C)C(=O)O)cc1CN1CC2(CCOCC2)Oc2nc(OCCN3CCOCC3)ccc2S1(=O)=O (stereo unspecified)	> 9.00
Cc1ccc([C@H](CC(=O)O)c2ccn3c(C(F)(F)F)nnc3c2C)cc1CN1C[C@H]2CCCCN2c2ncc(C#N)cc2S1(=O)=O	> 9.00
Cc1ccc([C@H](CC(=O)O)c2ccn3c(C)nnc3c2)cc1CN1C[C@H]2CCCN2c2ncccc2S1(=O)=O	> 9.00
Cc1ccc([C@H](CC(=O)O)c2ccn3c(C(F)(F)F)nnc3c2C)cc1CN1CC2(CC2)Oc2nc(N(C)CCCO)ccc2S1(=O)=O	> 9.00
Cc1ccc([C@@H](c2ccn3c(C(F)(F)F)nnc3c2C)C(C)(C)C(=O)O)cc1CN1CC2(CCOCC2)Oc2nc(OCCN3CCCCC3)c(C)cc2S1(=O)=O	> 9.00
Cc1ccc([C@@H](CC(=O)O)c2ccn3c(C(F)(F)F)nnc3c2C)nc1CN1C[C@H]2CCCCN2c2ncc(C#N)cc2S1(=O)=O	> 9.00
Cc1cnc2c(c1)S(=O)(=O)N(Cc1cc([C@@H](CC(=O)O)c3ccn4c(C(F)(F)F)nnc4c3C)ccc1C)CC1(CC1)O2	> 9.00
Cc1ccc(C(c2ccn3c(C(F)(F)F)nnc3c2C)C(C)C(=O)O)cc1CN1C[C@@H]2CCCCN2c2ncccc2S1(=O)=O (stereo partly specified)	> 9.00
Cc1ccc(C(c2ccn3c(C(F)(F)F)nnc3c2C)C(C)(C)C(=O)O)cc1CN1CC2(CCOCC2)Oc2nc(N[C@H](C)CCO)ccc2S1(=O)=O (stereo partly specified)	> 9.00
Cc1cnc2c(c1)S(=O)(=O)N(Cc1cc([C@H](CC(=O)O)c3ccn4c(C(F)(F)F)nnc4c3C)ccc1Cl)CC1CCCCN21 (stereo partly specified)	> 9.00
Cc1ccc([C@H](c2ccn3c(C(F)(F)F)nnc3c2C)C(C)(C)C(=O)O)cc1CN1CC2(CCOCC2)Oc2nc(OCC(=O)NCCO)ccc2S1(=O)=O	> 9.00
Cc1ccc([C@H](c2ccn3c(C(F)(F)F)nnc3c2C)C(C)(C)C(=O)O)cc1CN1CC2(CCOCC2)Oc2nc(N[C@@H](C)CCO)c(C)cc2S1(=O)=O	> 9.00
CCn1nnc2c(C)c([C@@H](CC(=O)O)c3ccc(C)c(CN4C[C@@H]5CCCN5c5ccccc5S4(=O)=O)c3)ccc21	> 9.00
CC[C@@H]1CN(Cc2nc(C(CC(=O)O)c3ccc4c(nnn4C4CC4)c3C)ccc2C)S(=O)(=O)c2cccnc2O1 (stereo partly specified)	> 9.00
Cc1ccc([C@H](CC(=O)O)c2ccn3c(C(F)(F)F)nnc3c2C)nc1CN1C[C@H]2CCCCN2c2ncc(C#N)cc2S1(=O)=O	> 9.00
CC[C@@H]1CN(Cc2cc(C(CC(=O)O)c3ccn4c(C)nnc4c3)ccc2C)S(=O)(=O)c2cccnc2O1 (stereo partly specified)	> 9.00
Cc1ccc([C@@H](c2ccn3c(C(F)(F)F)nnc3c2C)C(C)(C)C(=O)O)nc1CN1CC2(CCOCC2)Oc2ncccc2S1(=O)=O	> 9.00
Cc1ccc([C@@H](c2ccn3c(C(F)(F)F)nnc3c2C)C(C)(C)C(=O)O)cc1CN1CC2(CCOCC2)Oc2nc(NCCCO)ccc2S1(=O)=O	> 9.00
Cc1ncc([C@H](c2ccc3c(nnn3C3CC3)c2C)C(C)(C)C(=O)O)cc1CN1CC2(CCOCC2)Oc2ncccc2S1(=O)=O	> 9.00
Cc1ccc([C@H](CC(=O)O)c2ccn3c(C(F)(F)F)nnc3c2C)cc1CN1CC2(CC2)Oc2nc(NCCO)ccc2S1(=O)=O	> 9.00
Cc1ccc(C(CC(=O)O)c2ccn3c(C(F)(F)F)nnc3c2C)nc1CN1CC2CCCCN2c2ncc(C#N)cc2S1(=O)=O (stereo unspecified)	> 9.00

Structure (SMILES)	pKd
COCCCNc1ccc2c(n1)OC1(CC1)CN(Cc1cc([C@H](CC(=O)O)c3ccn4c(C(F)(F)F)nnc4c3C)ccc1C)S2(=O)=O	> 9.00
CCn1nnc2c(C)c([C@H](CC(=O)O)c3ccc(C)c(CN4C[C@H]5CCCN5c5ccccc5S4(=O)=O)c3)ccc21	> 9.00
Cc1ccc(C(c2cc(C)n3c(C(F)(F)F)nnc3c2C)C(C)C(=O)O)cc1CN1C[C@@H]2CCCCN2c2ncccc2S1(=O)=O (stereo partly specified)	> 9.00
Cc1ccc([C@@H](CC(=O)O)c2ccn3c(C)nnc3c2)cc1CN1C[C@H]2CCCN2c2ccccc2S1(=O)=O	> 9.00
CCn1nnc2c(C)c([C@@H](c3cnc(C)c(CN4CC5(CCOCC5)Oc5ncc(C)cc5S4(=O)=O)c3)C(C)(C)C(=O)O)ccc21	> 9.00
Cc1ccc([C@H](c2ccn3c(C(F)(F)F)nnc3c2C)C(C)(C)C(=O)O)cc1CN1CC2(CCOCC2)Oc2nc(N[C@H](C)C(C)(C)O)c(C)cc2S1(=O)=O	> 9.00
Cc1ccc([C@@H](CC(=O)O)c2ccn3c(C(F)(F)F)nnc3c2C)nc1CN1C[C@@H]2CCCCN2c2ncc(C#N)cc2S1(=O)=O	> 9.00
Cc1ccc(C(CC(=O)O)c2ccn3c(C)nnc3c2)cc1CN1CC(C)(C)Oc2ncccc2S1(=O)=O (stereo unspecified)	> 9.00
Cc1ccc([C@H](CC(=O)O)c2ccn3c(C)nnc3c2)cc1CN1C[C@H]2CCCN2c2ccccc2S1(=O)=O	> 9.00
Cc1ccc(C(c2ccn3c(C(F)F)nnc3c2C)C(C)(C)C(=O)O)cc1CN1CC2(CCOCC2)Oc2ncccc2S1(=O)=O (stereo unspecified)	> 9.00
Cc1c([C@@H](CC(=O)O)c2ccc(Cl)c(CN3CC4CCCCN4c4ncc(F)cc4S3(=O)=O)c2)ccn2c(C(F)(F)F)nnc12 (stereo partly specified)	> 9.00
Cc1ccc([C@@H](c2ccn3c(C(F)F)nnc3c2C)C(C)(C)C(=O)O)cc1CN1CC2(CCOCC2)Oc2ncccc2S1(=O)=O	> 9.00
Cc1c(C(CC(=O)O)c2ccc(Cl)c(CN3CC4CCCCN4c4ncc(F)cc4S3(=O)=O)c2)ccn2c(C(F)(F)F)nnc12 (stereo unspecified)	> 9.00
Cc1c([C@H](CC(=O)O)c2ccc(Cl)c(CN3CC4CCCCN4c4ncc(F)cc4S3(=O)=O)c2)ccn2c(C(F)(F)F)nnc12 (stereo partly specified)	> 9.00
CCn1nnc2c(C)c(C(c3cnc(C)c(CN4CC5(CCOCC5)Oc5ncc(C)cc5S4(=O)=O)c3)C(C)(C)C(=O)O)ccc21 (stereo unspecified)	> 9.00
Cc1ccc([C@H](CC(=O)O)c2ccn3c(C4CC4)nnc3c2C)cc1CN1C[C@H]2CCCN2c2ncccc2S1(=O)=O	> 9.00
Cc1ccc(C(c2ccn3c(C(F)(F)F)nnc3c2C)C(C)(C)C(=O)O)cc1CN1CC2(CCOCC2)Oc2nc(N[C@@H](C)CCO)ccc2S1(=O)=O (stereo partly specified)	> 9.00
Cc1ccc([C@H](CC(=O)O)c2ccc3c(nnn3CC3CC3)c2C(F)F)cc1CN1C[C@H]2CCCCN2c2ncccc2S1(=O)=O	> 9.00
Cc1ccc([C@H](CC(=O)O)c2ccn3c(C(F)(F)F)nnc3c2C)cc1CN1CC2(CC2)Oc2nc(NCCCO)ccc2S1(=O)=O	> 9.00
Cc1ccc([C@H](CC(=O)O)c2ccn3c(C(F)(F)F)nnc3c2C)cc1CN1CC2(CC2)Oc2nc(NCCN3CCCCC3)ccc2S1(=O)=O	> 9.00
Cc1c(C(CC(=O)O)c2ccc(Cl)c(CN3CC4CCCCN4c4ncccc4S3(=O)=O)c2)ccn2c(C(F)(F)F)nnc12 (stereo unspecified)	> 9.00
Cc1ccc([C@H](CC(=O)O)c2ccn3c(C(F)(F)F)nnc3c2C)cc1CN1C[C@@H]2CCCCN2c2ncc(C#N)cc2S1(=O)=O	> 9.00
